Source: ChEMBL document CHEMBL5518162, “Design, synthesis, and biological evaluation of 2-amino-6-methyl-phenol derivatives targeting lipid peroxidation with potent anti-ferroptotic activities” (Eur J Med Chem, 2024)
One block for each molecule: values may come before it. Active and inactive are the calls of the source. No cut-off for these calls is given here.

Assays:
[1] = Antioxidant activity assessed as DPPH radical scavenging activity at 10 uM; type: functional
HT-1080 [2] = assay: Anti-ferroptotic activity against RSL3-induced ferroptosis in human HT-1080 cells assessed as inhibition of ferroptosis incubated for 24 hrs by CCK-8 assay; type: functional, cell-based; details: HT-1080, 24 h
HT-1080 [3] = assay: Effect on FTH1 level in RSL3-induced human HT-1080 cells by measuring mRNA level by qRT-PCT analysis; type: functional, cell-based
HT-1080 [4] = assay: Effect on DMT1 level in unstimulated human HT-1080 cells by measuring mRNA level by qRT-PCT analysis; type: functional, cell-based
HT-1080 [5] = assay: Suppression of RSL-3 induced lipid ROS generation in human HT-1080 cells assessed as decrease in STY-BODIPY oxidation at 100 nM by C11-BODIPY581/591 staining based confocal microscopy; type: functional, cell-based
HT-1080 [6] = assay: Effect on SLC7A11 level in RSL3-induced human HT-1080 cells by measuring mRNA level by qRT-PCT analysis; type: functional, cell-based
HT-1080 [7] = assay: Effect on SLC7A11 level in unstimulated human HT-1080 cells by measuring mRNA level by qRT-PCT analysis; type: functional, cell-based
HT-1080 [8] = assay: Effect on GPX4 level in RSL3-induced human HT-1080 cells by measuring mRNA level by qRT-PCT analysis; type: functional, cell-based
HT-1080 [9] = assay: Effect on DMT1 level in RSL3-induced human HT-1080 cells by measuring mRNA level by qRT-PCT analysis; type: functional, cell-based
HT-1080 [10] = assay: Effect on ACSL4 level in unstimulated human HT-1080 cells by measuring mRNA level by qRT-PCT analysis; type: functional, cell-based
HT-1080 [11] = assay: Effect on ACSL4 level in RSL3-induced human HT-1080 cells by measuring mRNA level by qRT-PCT analysis; type: functional, cell-based
HT-1080 [12] = assay: Suppression of RSL-3 induced lipid ROS generation in human HT-1080 cells assessed as decrease in STY-BODIPY oxidation at 100 nM by C11-BODIPY581/591 staining based flow cytometry analysis; type: functional, cell-based
HT-1080 [13] = assay: Effect on TFRC level in RSL3-induced human HT-1080 cells by measuring mRNA level by qRT-PCT analysis; type: functional, cell-based
HT-1080 [14] = assay: Effect on FTH1 level in unstimulated human HT-1080 cells by measuring mRNA level by qRT-PCT analysis; type: functional, cell-based
HT-1080 [15] = assay: Effect on GPX4 level in unstimulated human HT-1080 cells by measuring mRNA level by qRT-PCT analysis; type: functional, cell-based
HT-1080 [16] = assay: Suppression of RSL3-induced malondialdehyde adducts accumulation in human HT-1080 cells at 100 nM by lipid peroxidation (MDA) assay; type: functional, cell-based
HT-1080 [17] = assay: Effect on TFRC level in unstimulated human HT-1080 cells by measuring mRNA level by qRT-PCT analysis; type: functional, cell-based
Mus musculus [18] = assay: Protection of kidney in ischemia-reperfusion-induced kidney injury C57BL/6Nj mouse model assessed as prevention of […] by measuring 4-HNE at 10 mg/kg, ip pretreated for 1 hr followed by bilateral artery clamping for 45 mins and measured after 24 hrs by immunohistochemistry staining based analysis; type: functional, organism-based; details: time 1545.0 min
Huh-7 = assay: Anti-ferroptotic activity against RSL3-induced ferroptosis in human Huh-7 cells assessed as […] at 100 nM incubated for 24 hrs by CCK-8 assay; type: functional, cell-based
HTR-8/SVneo = assay: Anti-ferroptotic activity against RSL3-induced ferroptosis in human HTR-8/SVneo cells assessed as […] at 100 nM incubated for 24 hrs by CCK-8 assay; type: functional, cell-based
HT-1080 [19] = assay: Anti-ferroptotic activity against RSL3-induced ferroptosis in human HT-1080 cells assessed as reduction in cell death at 100 nM incubated for 24 hrs by CCK-8 assay; type: functional, cell-based
HepG2 = assay: Anti-ferroptotic activity against RSL3-induced ferroptosis in human HepG2 cells assessed as […] at 100 nM incubated for 24 hrs by CCK-8 assay; type: functional, cell-based
Mus musculus [20] = assay: Protection of kidney in ischemia-reperfusion-induced kidney injury C57BL/6Nj mouse model assessed as focal eosinophilic degeneration of renal tubular epithelial cells in the extra medullary zone at 10 mg/kg, ip pretreated for 1 hr followed by bilateral artery clamping for 45 mins and measured after 24 hrs by hematoxylin and eosin staining based analysis; type: functional, organism-based; details: time 1545.0 min
HT-1080 [21] = assay: Anti-ferroptotic activity against ML210-induced ferroptosis in human HT-1080 cells assessed as reduction in cell death at 100 nM incubated for 24 hrs by CCK-8 assay; type: functional, cell-based
HeLa = assay: Anti-ferroptotic activity against RSL3-induced ferroptosis in human HeLa cells assessed as […] at 100 nM incubated for 24 hrs by CCK-8 assay; type: functional, cell-based
HT-1080 [22] = assay: Anti-ferroptotic activity against BSO-induced ferroptosis in human HT-1080 cells assessed as […] at 100 nM incubated for 24 hrs by CCK-8 assay; type: functional, cell-based
Mus musculus [23] = assay: Protection of kidney in ischemia-reperfusion-induced kidney injury C57BL/6Nj mouse model assessed as reduction of serum creatinine level at 10 mg/kg, ip pretreated for 1 hr followed by bilateral artery clamping for 45 mins and measured after 24 hrs; type: functional, organism-based
Mus musculus [24] = assay: Protection of kidney in ischemia-reperfusion-induced kidney injury C57BL/6Nj mouse model assessed as focal necrosis of renal tubular epithelial cells and nuclear fixation at 10 mg/kg, ip pretreated for 1 hr followed by bilateral artery clamping for 45 mins and measured after 24 hrs by hematoxylin and eosin staining based analysis; type: functional, organism-based; details: time 1545.0 min
HT-1080 [25] = assay: Anti-ferroptotic activity against erastin-induced ferroptosis in human HT-1080 cells assessed as reduction in cell death at 100 nM incubated for 24 hrs by CCK-8 assay; type: functional, cell-based
HT-1080 [26] = assay: Anti-ferroptotic activity against FIN56-induced ferroptosis in human HT-1080 cells assessed as reduction in cell death at 100 nM incubated for 24 hrs by CCK-8 assay; type: functional, cell-based
Mus musculus [27] = assay: Protection of kidney in ischemia-reperfusion-induced kidney injury C57BL/6Nj mouse model assessed as reduction of blood urea nitrogen level at 10 mg/kg, ip pretreated for 1 hr followed by bilateral artery clamping for 45 mins and measured after 24 hrs; type: functional, organism-based
HT-1080 [28] = assay: Anti-ferroptotic activity against erastin-induced ferroptosis in human HT-1080 cells assessed as preservation of cell viability above […] incubated for 24 hrs by CCK-8 assay; type: functional, cell-based
HT-1080 [29] = assay: Anti-ferroptotic activity against erastin-induced ferroptosis in human HT-1080 cells assessed as reduction in cell viability at 250 nM incubated for 24 hrs by CCK-8 assay; type: functional
HT-1080 [30] = assay: Anti-ferroptotic activity against RSL3-induced ferroptosis in human HT-1080 cells assessed as preservation of cell viability above […] incubated for 24 hrs by CCK-8 assay; type: functional, cell-based
HT-1080 [31] = assay: Anti-ferroptotic activity against RSL3-induced ferroptosis in human HT-1080 cells assessed as […] incubated for 24 hrs by CCK-8 assay; type: functional, cell-based; details: dose 0.1-1 µM
HT-1080 [32] = assay: Anti-ferroptotic activity against RSL3-induced ferroptosis in human HT-1080 cells assessed as reduction in cell viability at 250 nM incubated for 24 hrs by CCK-8 assay; type: functional
HT-1080 [33] = assay: Anti-ferroptotic activity against erastin-induced ferroptosis in human HT-1080 cells assessed as […] incubated for 24 hrs by CCK-8 assay; type: functional, cell-based

EC50 (HT-1080 [2]): 0.0789 µM
Structure (SMILES): COc1ccc(CNc2cccc(C)c2O)cc1
Activity [1]: Active

EC50 (HT-1080 [2]): 0.158 µM
Structure (SMILES): Cc1cccc(NCc2cccc(C#N)c2)c1O
Activity [1]: Active

EC50 (HT-1080 [2]): 0.181 µM
Structure (SMILES): Cc1cccc(NCc2ccccc2)c1O
Activity [1]: Active

EC50 (HT-1080 [2]): 0.0604 µM
Structure (SMILES): CCNc1cccc(C)c1O
Activity [1]: Active

EC50 (HT-1080 [2]): 0.149 µM
Structure (SMILES): Cc1cccc(NCc2cccc([N+](=O)[O-])c2)c1O
Activity [1]: Active

EC50 (HT-1080 [2]): 0.0255 µM
Structure (SMILES): Cc1ccc(CNc2cccc(C)c2O)cc1
Activity (HT-1080 [3]): inactive
Activity (Mus musculus [18]): Active
Activity (HT-1080 [4]): inactive
Activity (HT-1080 [5]): Active
Activity (Huh-7): Active
Activity (HT-1080 [6]): inactive
Activity (HTR-8/SVneo): Active
Activity (HT-1080 [7]): inactive
Activity (HT-1080 [19]): Active
Activity (HepG2): Active
Activity (HT-1080 [8]): inactive
Activity (HT-1080 [9]): inactive
Activity (HT-1080 [10]): inactive
Activity (Mus musculus [20]): Active
Activity (HT-1080 [11]): inactive
Activity (HT-1080 [12]): Active
Activity (HT-1080 [21]): Active
Activity (HeLa): Active
Activity [1]: Active
Activity (HT-1080 [13]): inactive
Activity (HT-1080 [22]): Active
Activity (Mus musculus [23]): Active
Activity (HT-1080 [14]): inactive
Activity (HT-1080 [15]): inactive
Activity (Mus musculus [24]): Active
Activity (HT-1080 [25]): Active
Activity (HT-1080 [26]): Active
Activity (HT-1080 [16]): Active
Activity (HT-1080 [17]): inactive
Activity (Mus musculus [27]): Active

EC50 (HT-1080 [2]): 0.131 µM
Structure (SMILES): Cc1cccc(NCc2ccc(Cl)cc2)c1O
Activity (HT-1080 [3]): inactive
Activity (HT-1080 [4]): inactive
Activity (HT-1080 [5]): Active
Activity (HT-1080 [6]): inactive
Activity (HT-1080 [7]): inactive
Activity (HT-1080 [8]): inactive
Activity (HT-1080 [9]): inactive
Activity (HT-1080 [10]): inactive
Activity (HT-1080 [11]): inactive
Activity (HT-1080 [12]): Active
Activity [1]: Active
Activity (HT-1080 [13]): inactive
Activity (HT-1080 [14]): inactive
Activity (HT-1080 [15]): inactive
Activity (HT-1080 [16]): Active
Activity (HT-1080 [17]): inactive

EC50 (HT-1080 [2]): 0.164 µM
Structure (SMILES): COC(=O)c1ccc(CNc2cccc(C)c2O)cc1
Activity [1]: Active

Continued, molecule first:

Structure (SMILES): Nc1cccc(C(=O)O)c1O
Activity [1]: Active
EC50 (HT-1080 [2]): > 10 µM

Structure (SMILES): CC(=O)c1cccc(N)c1O
Activity [1]: Active
EC50 (HT-1080 [2]): > 10 µM

Structure (SMILES): CCCCNc1cccc(C)c1O
Activity (HT-1080 [3]): inactive
Activity (HT-1080 [4]): inactive
Activity (HT-1080 [5]): Active
Activity (HT-1080 [6]): inactive
Activity (HT-1080 [7]): inactive
Activity (HT-1080 [8]): inactive
Activity (HT-1080 [9]): inactive
Activity (HT-1080 [10]): inactive
Activity (HT-1080 [11]): inactive
Activity (HT-1080 [12]): Active
Activity [1]: Active
Activity (HT-1080 [13]): inactive
Activity (HT-1080 [14]): inactive
Activity (HT-1080 [15]): inactive
Activity (HT-1080 [16]): Active
Activity (HT-1080 [17]): inactive
EC50 (HT-1080 [2]): 0.0747 µM

Structure (SMILES): COc1c(C)cccc1N
Activity [1]: Active
EC50 (HT-1080 [2]): > 10 µM

Structure (SMILES): Cc1cccc([N+](=O)[O-])c1O
Activity [1]: Active
EC50 (HT-1080 [2]): > 10 µM

Structure (SMILES): CCOC(=O)c1ccc(NC2CCCCC2)c(N)c1
Activity (HT-1080 [5]): Active
Activity (HT-1080 [12]): Active
Activity [1]: Active
EC50 (HT-1080 [2]): 0.138 µM

Structure (SMILES): Cc1cccc(N)c1OCc1ccccc1
Activity [1]: Active
EC50 (HT-1080 [2]): > 10 µM

Structure (SMILES): Cc1cccc(N)c1O
Activity (HT-1080 [28]): Active
Activity (HT-1080 [29]): 100%
Activity (HT-1080 [30]): Active
Activity [1]: Active
Activity (HT-1080 [31]): Dose-Dependent Effect
Activity (HT-1080 [32]): 100%
EC50 (HT-1080 [2]): 0.207 µM
Activity (HT-1080 [33]): Dose-Dependent Effect
EC50 (HT-1080 [33]; HT-1080, 24 h): 0.132 µM
